Tests used:
[1] = test system: lethal effects of Adrenaline; assay: Adrenolytic activity "in vivo": protection against the lethal effects of Adrenaline (Luduena et al.); conditions: Rattus norvegicus, po; rats, os, 60 minutes before 200 mcg/Kg Adrenaline endovenous; read-out: ID50 (dose protecting 50% of the animals from the lethal effects of Adrenaline)
Method: (§1) For the adrenolytic activity "in vivo" the method of Luduena et al. (Arch. int. Pharmacodyn., 122, 111, 1959) has been used, based on the evaluation of the protective action of the adrenolytic compounds against the lethal effects of Adrenaline.
(§2) The drugs under examination are administered by the endovenous route dissolved in water, and by the oral route they are dissolved or suspended in 5% arabic gum, respectively at 5 and 60 minutes before a fixed dose of 200 mcg/Kg of Adrenaline by the endovenous route.
(§3) Always 10 rats have been employed per group.
(§4) The activity of the drug is expressed as the dose protecting 50% of the animals from the lethal effects of Adrenaline administered by the endovenous route (ED50).

[2] = Toxicity: LD50 by the oral route, 7 days follow-up; conditions: mouse, in vivo, mice, os, followed for 7 days
Method: (§5) In order to evaluate the toxicity of the drugs under examination, increasing doses are administered to groups of 5-10 mice which are then followed for a period of 7 days.
(§6) For administration by the oral route, the compounds are dissolved or suspended, according to the solubility, in 5% arabic gum. The LD50 expresses the dose of drug which causes the death of 50% of the animals.

[3] = Therapeutic index (LD50/ID50), oral; conditions: in vivo, os, LD50 in mice, ID50 in rats
Method: as §1, §2, §3, §4, §5, §6

[4] = test system: contractions caused by Adrenaline in seminal small bladder of Guinea-pig; assay: Adrenolytic activity "in vitro": inhibition of contractions induced by Adrenaline in isolated seminal small bladder; conditions: Tyrode, 38°C, 3 minutes of contact, 1 mcg/ml Adrenaline
Method: The adrenolytic activity of the new esters has been studied in comparison with that of Nicergoline [1,6-dimethyl-8β-(5'-bromonicotinoyloxymethyl)-10α-methoxyergoline] and of dihydroergotamine. The activity "in vitro" has been determined employing seminal small bladder of Guinea-pig immersed in Tyrode liquid wherein oxygen and 5% carbon dioxide are bubbled.
The bath temperature is maintained constant at 38°C. The contractions induced by Adrenaline are registered on a chimograph by means of an isotonic lever. The activity of the drug under examination is expressed as the concentration in mcg/ml able, after 3 minutes of contact, to inhibit 50% of the contractions caused by 1 mcg/ml of Adrenaline (IC50).

[5] = Pharmacological activity of intermediates, general statement

SMILES	ED50 [1]	LD50 at 168 h [2]	selectivity ratio [3]	IC50 (concentration inhibiting 50% of the contractions caused by 1 mcg/ml of Adrenaline) [4]	pharmacological activity [5]
CO[C@]12C[C@@H](CCOC(=O)c3c(C)cc(C)n3C)CN(C)[C@@H]1Cc1cn(C)c3cccc2c13 [1,6-Dimethyl-8β-[1',3',5'-trimethyl-2'-pyrroyloxyethyl]-10α-methoxyergoline]	0.1 mg/kg	100 mg/kg	1300	–	–
CCn1cccc1C(=O)OCC[C@H]1CN(C)[C@@H]2Cc3cn(C)c4cccc(c34)[C@@]2(OC)C1 [1,6-Dimethyl-8β-[1'-ethyl-2'-pyrroyloxyethyl]-10α-methoxyergoline]	0.025 mg/kg	180 mg/kg	5200	–	–
CO[C@]12C[C@@H](CCOC(=O)c3cc[nH]c3C)CN(C)[C@@H]1Cc1cn(C)c3cccc2c13 [1,6-Dimethyl-8β-[2'-methyl-3'-pyrroyloxy-ethyl]-10α-methoxyergoline]	0.1 mg/kg	100 mg/kg	1300	1 ng/mL	–
CO[C@]12C[C@@H](CCOC(=O)c3ccc[nH]3)CN(C)[C@@H]1Cc1cn(C)c3cccc2c13 [1,6-Dimethyl-8β-[2'-pyrroyloxyethyl]-10α-methoxyergoline]	0.06 mg/kg	450 mg/kg	6600	–	–
CO[C@]12C[C@@H](CCOC(=O)c3[nH]c(C)cc3C)CN(C)[C@@H]1Cc1cn(C)c3cccc2c13 [1,6-Dimethyl-8β-[3',5'-dimethyl-2'-pyrroyloxyethyl]-10α-methoxyergoline]	0.12 mg/kg	300 mg/kg	3750	–	–
CO[C@]12C[C@@H](CCO)CN(C)[C@@H]1Cc1cn(C)c3cccc2c13 [(V), 1,6-Dimethyl-8β-hydroxyethyl-10α-methoxyergoline]	–	–	–	–	slight pharmacological activity
CN1C[C@H](C(=O)N[C@]2(C)O[C@@]3(O)[C@@H]4CCCN4C(=O)[C@H](Cc4ccccc4)N3C2=O)C[C@@H]2c3cccc4[nH]cc(c34)C[C@H]21 [Dihydroergotamine, reference compound]	15 mg/kg	–	–	15 ng/mL	–
CO[C@]12C[C@@H](COC(=O)c3cncc(Br)c3)CN(C)[C@@H]1Cc1cn(C)c3cccc2c13 [Nicergoline, 1,6-dimethyl-8β-(5'-bromonicotinoyloxymethyl)-10α-methoxyergoline, reference compound]	7 mg/kg	632 mg/kg	90	1 ng/mL	–
